EP3727043B1 (Golden Gait Biotech, S.L., priority 2017, dated 2019)
Where two headings read alike, the source gives them in different places.

Assays:
[1] = test system: patients with idiopathic PD and levodopa induced dyskinesias (LIDs)
Procedure: At the time the study was performed (2009), there was no FDA accepted instrument for measuring treatment efficacy for LIDs. Therefore, several secondary objectives were utilized to assess efficacy including the Unified Dyskinesia Rating Scale (UDysRS).
A total of 65 male and female subjects with idiopathic PD with LIDs were randomized in the study. The study consisted of 4 phases (FIG. 6A): screening phase (up to 3 weeks), double-blind treatment phase (10 weeks), taper phase (2 weeks), and follow-up phase (2 weeks). The approximate duration of the study for each subject was 17 weeks. […] During the double-blind treatment phase, dosing was begun at Visit 0 at 1 mg every 6 hours (total daily dose [TDD] = 4 mg/day) and escalated upwards at 2-week intervals as follows: 2 mg every 6 hours (TDD = 8 mg/day) at Visit 1 (Week 2); 4 mg every 6 hours (TDD = 16 mg/day) at Visit 2 (Week 4); 6 mg every 6 hours (TDD = 24 mg/day) at Visit 3 (Week 6). Subjects were maintained on 24 mg/day for 4 weeks. The subsequent taper phase (2 weeks total), beginning at Visit 4 (Week 10), consisted of 9 days of drug taper and 5 days off drug prior to Visit 5 (final safety visit). […] Ondansetron was provided by the sponsor and dispensed with each dose escalation step with instructions to use it for nausea and vomiting only during the first 4 days following dose initiation or escalation. […] No other dose down-titration was allowed. Table 5. Dose Escalation Schedule
A total of 65 patients with idiopathic PD and levodopa induced dyskinesias (LIDs) were randomized. Patients were required to have a diagnosis of idiopathic PD and be within a Hoehn & Yahr Stage II - IV while in a peak "ON" state(levodopa in a therapeutic range). They had to have moderate to severely disabling LIDs for at least 25% of the waking day, as determined by Questions 32 and 33 in Part II of the UPDRS and a Mini-Mental State Examination (MMSE) score of ≥26. Patients with atypical Parkinson disorders, prior deep brain stimulation (DBS), unstable angina, a history of ventricular arrhythmias, or active peptic ulcer or a history of schizophrenia, schizoaffective disorder, or bipolar disease were excluded. Patients who actively smoked were also excluded. Table 9: Demographics
The drug, or a placebo identical in appearance and packaging, was administered orally 4 times a day in a blinded fashion. Patients were examined while in an "ON" state, when levodopa was in a therapeutic range. During the treatment phase, dosing was begun at 1 mg every 6 hours (total daily dose=4 mg/day) and escalated upwards at 2-week intervals as follows: 2 mg every 6 hours at Visit 1; 4 mg every 6 hours at Visit 2; 6 mg every 6 hours at Visit 3. Patients were maintained on 24 mg/day for 4 weeks. All patients, study site personnel, raters and the sponsor were blinded to treatment assignment.
The original UPDRS scale was used. […] In the UPDRS Part II, Question 13 is on Falling unrelated to Freezing. […] In Part II, Question 14 is on Freezing when Walking. This is a 5-point item and has two variables freezing and falls. […] Questions 13 and 14 were compared separately (Table 11). […] Table 10: UPDRS Part II (ADL), UPDRS Part III (Motor Examination)
LIDs were assessed by the UDysRS, the main measure of LIDs (Table 12). […] The study was conducted in accordance with the Declaration of Helsinki and Good Clinical Practice Guidelines. All sites received approval from an institutional review board and written informed consent was obtained from each patient prior to participation. Table 12. Unified Dyskinesia Rating Scale (UDysRS)
All hypotheses were tested using 2-sided tests with alpha set at the 0.050 level of significance. In general, efficacy data were summarized by treatment group, and safety data were summarized by treatment group and overall.

[2] = test system: patients with idiopathic PD and levodopa induced dyskinesias (LIDs); remark: listed apart in the source
Procedure: Efficacy was measured with the Unified Dyskinesia Rating Scale (UDysRS), a semi- quantitative assessment, FDA-validated instrument to assess gait, balance and dyskinesia in PD. […] Dosing was begun at 1 mg every 6 hours to a final dose of 24 mg per day.
All hypotheses were tested using 2-sided tests with alpha set at the 0.050 level of significance. In general, efficacy data were summarized by treatment group, and safety data were summarized by treatment group and overall. In all analyses, assumptions such as normality and homogeneity of variance were examined prior to conducting the proposed parametric statistical procedures. Categorical variables were analyzed by Fisher's exact 2- tailed test and continuous variables were tested under 2-sample t-tests. The equality of variances was examined using an F-test before applying the 2-sample t-test.

clinical = conditions: human, plasma, po
[3] = oral administration of capsules
[4] = Baseline to Week 10, 30 NP002 patients
[5] = Baseline to Week 10, minus = improvement, 30 NP002 patients
[6] = Baseline to Week 10, plus = worsening, 30 NP002 patients
[7] = NP002 Patients Baseline (before treatment)
[8] = NP002 patients at 10 Weeks, up to 24 mg/day orally
[9] = NP002 patients at Baseline (before treatment)

CN1CCCC1c1cccnc1.O=C(O)C(O)C(O)C(=O)O (centres unmarked) [NP002, Nicotine Bitartrate]
UPDRS Part II (ADL) and Part III (Motor Examination) after treatment, NP002 vs placebo ([1]; 10 weeks): no significant differences | Falls (UPDRS Part II Question 13), number of patients with change -3 ([1]; Baseline to Week 10, 5-point scale, minus = improvement, 30 NP002 patients): 1 | FOG (UPDRS Part II Question 14), number of patients with No Change [1, 4]: 17 | FOG (UPDRS Part II Question 14), number of patients with change +2 [1, 4]: 0 | FOG (UPDRS Part II Question 14), number of patients with change +3 [1, 4]: 0 | FOG (UPDRS Part II Question 14), number of patients with change -1 [1, 4]: 10 | FOG (UPDRS Part II Question 14), number of patients with change -2 [1, 4]: 2 | Falls (UPDRS Part II Question 13), number of patients with No Change [1, 4]: 16 | Falls (UPDRS Part II Question 13), number of patients with change +2 [1, 4]: 0 | Falls (UPDRS Part II Question 13), number of patients with change +3 [1, 4]: 0 | Falls (UPDRS Part II Question 13), number of patients with change -1 [1, 4]: 7 | Falls (UPDRS Part II Question 13), number of patients with change -2 [1, 4]: 5 | Pull Test (Item 30 of the UPDRS Part III), number of patients with No Change [1, 4]: 19 | Pull Test (Item 30 of the UPDRS Part III), number of patients with change +2 [1, 4]: 0 | Pull Test (Item 30 of the UPDRS Part III), number of patients with change +3 [1, 4]: 0 | Pull Test (Item 30 of the UPDRS Part III), number of patients with change -1 [1, 4]: 5 | Pull Test (Item 30 of the UPDRS Part III), number of patients with change -2 [1, 4]: 5 | FOG (UPDRS Part II Question 14), number of patients with change -3 [1, 5]: 0 | Pull Test (Item 30 of the UPDRS Part III), number of patients with change -3 [1, 5]: 0 | FOG (UPDRS Part II Question 14), number of patients with change +1 [1, 6]: 1 | Falls (UPDRS Part II Question 13), number of patients with change +1 [1, 6]: 1 | Pull Test (Item 30 of the UPDRS Part III), number of patients with change +1 [1, 6]: 1 | patients with a reduction in falls ([1]; Fourteen of 30 NP002 patients, p=0.00857 vs placebo): 47% | Total Score UDysRS [1, 7]: 51.7 +/-16.9 | UDysRS Evaluation of Dyskinesias on 7 Body Parts [1, 7]: 13.5 +/-5.4 | UDysRS Evaluation of Dyskinesias on Ambulation [1, 7]: 9.5 +/- 6.0 | UDysRS Evaluation of Dyskinesias on Communication [1, 7]: 10.5 +/-4.8 | UDysRS Evaluation of Dyskinesias on Dressing [1, 7]: 11.3 +/-6.2 | UDysRS Evaluation of Dyskinesias on Drinking [1, 7]: 9.1 +/- 5.6 | Total Score UDysRS ([1]; NP002 Patients Week 10): 36.4 +/-16.1 | UDysRS Evaluation of Dyskinesias on 7 Body Parts ([1]; NP002 Patients Week 10): 8.5 +/- 5.4 | UDysRS Evaluation of Dyskinesias on Ambulation ([1]; NP002 Patients Week 10): 5.1 +/- 5.3 | UDysRS Evaluation of Dyskinesias on Communication ([1]; NP002 Patients Week 10): 7.0 +/- 5.0 | UDysRS Evaluation of Dyskinesias on Dressing ([1]; NP002 Patients Week 10): 6.9 +/- 5.5 | UDysRS Evaluation of Dyskinesias on Drinking ([1]; NP002 Patients Week 10): 5.3 +/- 5.0 | UPDRS II [1, 8]: 10.1 ± 5.3 | UPDRS III [1, 8]: 17.3 ± 10.6 | UPDRS II [1, 9]: 13.1 ± 6.0 | UPDRS III [1, 9]: 20.0 ± 8.8 | Difference in LS Means 95% Confidence Interval, UPDRS Part III ([1]; NP002 versus Placebo, p-value 0.337): -18.3 ± 1.8 (-5.8, 2.0) | Difference in LS Means 95% Confidence Interval, UPDRS Part II ([1]; NP002 versus Placebo, p-value 0.631): 10.1 ± 0.96 (-3.2, 2.0) | UDysRS Evaluation of Dyskinesias on Ambulation, Difference LS Means ([1]; NP002 vs placebo, p-value 0.011*): -3.7 +/-1.9 | UDysRS Evaluation of Dyskinesias on 7 Body Parts, Difference LS Means ([1]; NP002 vs placebo, p-value 0.062): -2.8 +/-2.6 | Total Score UDysRS, Difference LS Means ([1]; NP002 vs placebo, p-value 0.092): -6.7 +/-4.1 | UDysRS Evaluation of Dyskinesias on Dressing, Difference LS Means ([1]; NP002 vs placebo, p-value 0.139): -2.1 +/-1.4 | UDysRS Evaluation of Dyskinesias on Drinking, Difference LS Means ([1]; NP002 vs placebo, p-value 0.171): -2.4 +/-1.7 | UDysRS Evaluation of Dyskinesias on Communication, Difference LS Means ([1]; NP002 vs placebo, p-value 0.189): -1.9 +/-1.4 | patients with a reduction in retropulsion ([1]; Ten of 30 NP002 patients, p=0.0228 vs placebo): 33.3% | patients with a reduction in FOG ([1]; Twelve of 30 NP002 patients, p=0.04301 vs placebo): 40% | PGI-C responders (subjects with a score of 1, 2, or 3) ([1]; Visit 4 (Week 10), 21 responders, p = 0.0048 vs placebo): 77.8% | UPDRS II Change ([1]; baseline to 10 weeks): 2.8 + 5.2 | UPDRS III Change ([1]; baseline to 10 weeks): 2.0 + 7.5 | patient- and physician-rated assessments of efficacy versus placebo ([1]; human, in vivo): superior to placebo | patients with either a reduction or absence of FOG during the active phase ([1]; human, in vivo): ~73% | patients with either a reduction or absence of falls during the active phase ([1]; human, in vivo): ~87% | patients with no FOG during the study ([1]; of 30 NP002 patients): 10 | patients with no falls during the study ([1]; of 30 NP002 patients): 12 | reduction (improvement) in the effect of LIDs on ambulation, UDysRS ambulation subtest ([1]; p=0.011 vs placebo): 46% | reduction in LIDs, Total UDysRS ([1]; p=0.092 vs placebo): 39% | Adverse Event: Constipation ([2]; N=35): 5 (14.3) Number (%) | Adverse Event: Diarrhea ([2]; N=35): 2 (5.7) Number (%) | Adverse Event: Dizziness ([2]; N=35): 7 (20.0) Number (%) | Adverse Event: Fatigue ([2]; N=35): 3 (8.6) Number (%) | Adverse Event: Headache ([2]; N=35): 2 (5.7) Number (%) | Adverse Event: Insomnia ([2]; N=35): 0 (0.0) Number (%) | Adverse Event: Nausea ([2]; N=35): 13 (37.1) Number (%) | Adverse Event: Nightmare ([2]; N=35): 2 (5.7) Number (%) | Adverse Event: Pain ([2]; N=35): 3 (8.6) Number (%) | Adverse Event: Pain in extremity ([2]; N=35): 2 (5.7) Number (%) | Adverse Event: Tremor ([2]; N=35): 2 (5.7) Number (%) | Adverse Event: Vomiting ([2]; N=35): 4 (11.4) Number (%) | Number (%) of subject with any AE ([2]; N=35): 26 (74.3) Number (%) | Serum cotinine levels ([2]; compliance check): paralleled dosing of nicotine | adverse events reported ([2]; number of events among NP002 patients): 45 | Primary reason for study discontinuation: Adverse event ([2]; of 35 randomized): 6 (17.1) n (%) | Primary reason for study discontinuation: Protocol violation ([2]; of 35 randomized): 2 (5.7) n (%) | Subjects who completed study per protocol ([2]; of 35 randomized): 25 (71.4) n (%) | Subjects who discontinued the study ([2]; of 35 randomized): 10 (28.6) n (%) | subjects who completed the study ([2]; of 35 randomized): 25 subjects | subjects who withdrew because of AEs ([2]; of 35 randomized): 6 subjects | subjects who withdrew because of protocol violations ([2]; of 35 randomized): 2 subjects | subjects who withdrew from the study ([2]; of 35 randomized): 10 subjects | Primary reason for study discontinuation: Other ([2]; subject going on vacation, of 35 randomized): 2 (5.7) n (%) | Subjects who required dose reduction or discontinuation of study treatment ([2]; treated subjects with any adverse events with action taken = reduced/discontinued study drug, of 35 randomized): 7 (20.0) n (%) | Tmax (clinical): ~1.5 h | time by which the plasma concentration of nicotine returns close to baseline [3]: ~ 6 hours
